According to patent publication US20240166684A1 (priority 2021, published 2024):
Entries after “also recorded” stand apart in the source; their conditions may differ. Like-named read-outs stand apart in the source and are kept apart here. Non-standard residues stand in square brackets, D forms with d. Residues, ends and D or L forms follow the SMILES beside them. *: point of attachment. Nle = CCCC[C@H](N)C(=O)O; Cbz = O=C(OCc1ccccc1)*

Tests used:
ATP1A1 = assay type: cell-based, human
ATP1A2 = assay type: cell-based, human
ATP1A3 = assay type: cell-based, human
GFAP = assay type: cell-based, human
PrP^C [1] = conditions: for effect of co-incubated inhibitor on ouabain-induced reduction in PrP^C levels: 25 nM ouabain or 20 nM ouabain; for effect on steady-state PrP^C levels: 3-day exposure (FIG. 7), ouabain 20 nM
ReN VM cells [2] = assay: cells; assay type: cell-based; conditions: Homo sapiens, 168 h, read-out: concentration at which metabolic activity dropped to 50%
ReN VM cells [3] = assay: cells; assay type: cell-based; conditions: Homo sapiens, 168 h, read-out: cellular toxicity: concentration at which ATP levels drop to 50% of mock-treated control
ReN VM cells [4] = assay: cells; assay type: cell-based, human
ReN VM cells [5] = conditions: human
NKAs [6] = conditions: cited from earlier work
NKA β subunit = assay type: cell-based, human
[7] = test system: class III beta tubulin (Tuj-1); assay type: cell-based, human
[8] = mouse, in vivo, sc
HeLa cells = conditions: cited from earlier work
[9] = cited from earlier work
PrP^C [10] = conditions: literature screens; cited from earlier work
[11] = test system: 5′-ectonucleotidase (5′-NT); assay type: cell-based, human
NKAs [12] = test system: NKAs
NKAs [13] = conditions: cited from earlier work; remark: listed apart in the source
[14] = differentiated ReN VM cells, one-week exposure

In the case of `CCCC[C@@H](C=O)NC(=O)[C@H](CC(C)C)NC(=O)[C@H](CC(C)C)NC(C)=O` [A6185, N-acetyl-Leu-Leu-norleucinal] (Ac-Leu-Leu-[Nle]-aldehyde), the “effect on steady-state ATP1A1 levels” value (ATP1A1) is reported as “no apparent effect”, the “effect on steady-state ATP1A2 levels” value (ATP1A2) is reported as “diminished” and the “effect on steady-state ATP1A3 levels” value (ATP1A3) is reported as “no apparent effect”. The “effect on ouabain-induced formation of faster migrating GFAP bands” value (GFAP) was “blocked the excessive formation of faster migrating bands”, the “effect of co-incubated inhibitor on ouabain-induced reduction in PrP^C levels” value (PrP^C [1]) was “did neither prevent” and the “effect on steady-state PrP^C levels” value (PrP^C [1]; ReN VM cells) was “diminished”.

With `CC(C)C[C@@H](C=O)NC(=O)[C@H](CC(C)C)NC(=O)[C@H](CC(C)C)NC(=O)OCc1ccccc1` [MG132] (Cbz-Leu-Leu-Leu-aldehyde) the “effect of co-incubated inhibitor on ouabain-induced reduction in ATP1A1 levels” value (ATP1A1) was “caused an increase in ATP1A1 steady-state levels” and the “effect of co-incubated inhibitor on ouabain-induced reduction in PrP^C levels” value (PrP^C [1]) was “failed to block”.

For calpastatin, the “effect of co-incubated inhibitor on ouabain-induced reduction in ATP1A1 levels” value (ATP1A1) was “did neither prevent” and the “effect of co-incubated inhibitor on ouabain-induced reduction in PrP^C levels” value (PrP^C [1]) was “did neither prevent”.

With `C[C@H]1O[C@@H](O[C@H]2[C@@H](O)C[C@H](O[C@H]3[C@@H](O)C[C@H](O[C@H]4CC[C@@]5(C)[C@H](CC[C@@H]6[C@@H]5C[C@@H](O)[C@]5(C)[C@@H](C7=CC(=O)OC7)CC[C@]65O)C4)O[C@@H]3C)O[C@@H]2C)C[C@H](O)[C@@H]1O` [digoxin] the IC50 (ReN VM cells [2]) was roughly 50 nM, the IC50 (ReN VM cells [3]) was roughly 25 nM and the “increase of cellular calcium levels” value (ReN VM cells [4]) was “approximately 20%”. For the same molecule, the IC50 (ReN VM cells [4]; Homo sapiens, 168 h, read-out: concentration giving half maximum intracellular calcium levels) was 30 nM, the “level above which all three measures of cellular health dropped” value (ReN VM cells [5]) was “Above 10 nM” and the “time to dissociate from NKAs” value (NKAs [6]) was 18 h.

With bafilomycin the “effect of co-incubated inhibitor on ouabain-induced reduction in ATP1A1 levels” value (ATP1A1) was “rescued” and the “effect of co-incubated inhibitor on ouabain-induced reduction in PrP^C levels” value (PrP^C [1]) was “rescued”.

With `COC1C[C@H](O[C@H]2CC[C@]3(C)C4CC[C@]5(C)[C@@H](C6=CC(=O)OC6)[C@@H](OC(C)=O)C[C@]5(O)[C@@H]4CC[C@@H]3C2)OC(C)C1=O` (stereo partly drawn) [I-3, 4′-dehydro-oleandrin] the “concentration achieving similar reduction in ATP1A1 levels” value (ATP1A1) was 4 nM, the “concentrations causing reduction of steady-state ATP1A1 levels” value (ATP1A1) was “up to 16 nM” and the “effect of I-3 on steady-state ATP1A2 levels” value (ATP1A2) was “declined as levels of exemplary compound I-3 were increased”. The “concentration at which ATP1A3 levels reach a maximum” value (ATP1A3) was 24 to 32 nM, the “concentration up to which ATP1A3 levels stayed unchanged” value (ATP1A3) was “up to 8 nM” and the “effect on steady-state GFAP levels” value (GFAP) was “not paralleled by significant changes”. For the same molecule, the “effect on NKA β subunit levels” value (NKA β subunit) was “lesser, yet also pronounced reduction”, the “effect on Tuj-1 levels” value [7] was “not paralleled by significant changes” and the “maximum reduction in steady-state PrP^C levels” value (PrP^C [1]; 12 nM, one week, ReN VM cells) was 84%. The “concentration at which PrP^C signal rebounds / migrates differently in SDS-PAGE” value (PrP^C [1]; [14]) was 20 to 32 nM, the “concentrations causing concentration-dependent reduction of steady-state PrP^C levels” value (PrP^C [1]; [14]) was 4 to 16 nM and the tolerated concentration (ReN VM cells [5]) was “up to 30 nM”. For the same molecule, the toxic concentration (ReN VM cells [5]) was no less than 40 nM, the “concentration accumulated in the brain” value [8] was 38.8 nM and the “time of highest levels in heart, kidney and liver” value [8] was 4 h. The IC50 (HeLa cells) was 46 nM, the “cytotoxicity relative to oleandrin” value (HeLa cells) was “slightly reduced relative to oleandrin” and the “oral effectiveness (oral versus intravenous lethal doses), increase relative to oleandrin” value ([9]; cats) was “approximately 20%”. The “oral toxicity relative to oleandrin” value ([9]; in vivo, po) was “almost twofold lower”.

In the case of `COC1C[C@H](O[C@H]2CC[C@]3(C)C4CC[C@]5(C)[C@@H](C6=CC(=O)OC6)[C@@H](OC(C)=O)C[C@]5(O)[C@@H]4CC[C@@H]3C2)OC(C)[C@@H]1O` (stereo partly drawn) [oleandrin, acetic acid [(3S,5R,10S,13R,14S,16S,17′R)-14-hydroxy-3-[[(2R,4S,5S,6S)-5-hydroxy-4-methoxy-6-methyl-2-tetrahydropyranyl]oxy]-10,13-dimethyl-17-(5-oxo-2H-furan-3-yl)-1,2,3,4,5,6,7,8,9,11,12,15,16,17-tetradecahydrocyclopenta[a]phenanthren-16-yl] ester], the “concentration achieving similar reduction in ATP1A1 levels” value (ATP1A1) is reported as 4 nM, the “concentration at which ATP1A1 levels rebound / increase” value (ATP1A1) is reported as “around 2 nM” and the “potency of oleandrin relative to ouabain for similar reduction of ATP1A1 and PrP^C” value (PrP^C [1]; 7-day treatment, differentiated ReN VM cells) is reported as “approximately tenfold higher potency; also recorded: tenfold lower levels”. For the same molecule, the tolerated concentration (ReN VM cells [5]) was “up to 2 nM”, the “brain levels relative to other organs” value [8] was “lowest in the brain” and the “time of rapid increase in heart, kidney and liver” value [8] was 2 h.

For `C=CC[C@@H]1/C=C(\C)C[C@H](C)C[C@H](OC)[C@H]2O[C@@](O)(C(=O)C(=O)N3CCCC[C@H]3C(=O)O[C@H](/C(C)=C/[C@@H]3CC[C@@H](O)[C@H](OC)C3)[C@H](C)[C@@H](O)CC1=O)[C@H](C)C[C@@H]2OC` [Tacrolimus], the “effective concentrations for reducing PrP^C levels” value (PrP^C [10]) is listed as “micromolar”.

For `C[C@@H]1O[C@@H](O[C@H]2C[C@@H](O)[C@]3(CO)[C@H]4[C@H](O)C[C@]5(C)[C@@H](C6=CC(=O)OC6)CC[C@]5(O)[C@@H]4CC[C@]3(O)C2)[C@H](O)[C@H](O)[C@H]1O` [ouabain], the “concentration at which ATP1A1 levels rebound / increase” value (ATP1A1) was 50 nM, the “concentrations causing reduction of steady-state ATP1A1 levels” value (ATP1A1) was “up to 30 nM” and the “effect on steady-state ATP1A1 levels” value (ATP1A1) was “reduction”. The “lowest concentration at which ATP1A1 reduction is apparent” value (ATP1A1) was 3 nM, the “effect on steady-state ATP1A2 levels” value (ATP1A2) was “reduction” and the “effect on steady-state ATP1A3 levels” value (ATP1A3) was “not affected”. The “effect on GFAP antibody-reactive bands” value (GFAP) was “an increase in the intensity levels of bands that were reactive toward GFAP-directed antibodies”, the “effect on steady-state 5′-NT levels” value [11] was “increase” and the “reduction of total 86Rb+ uptake by complete block of NKAs” value (NKAs [12]) was 49%. The “effect on steady-state PrP^C levels” value (PrP^C [1]; ReN VM cells) was “reduction”, the “concentration at which PrP^C signal rebounds / migrates differently in SDS-PAGE” value (PrP^C [1]; [14]) was 50 nM and the “lowest concentration at which PrP^C reduction is apparent” value (PrP^C [1]; [14]) was 3 nM. The IC50 (NKAs [13]) was 15 to 41 nM and the “time to dissociate from NKAs” value (NKAs [6]) was “less than two hours”.

For `CC(=O)N[C@@H](CSC(=O)[C@]1([C@@H](O)C(C)C)NC(=O)[C@H](C)[C@@H]1O)C(=O)O` [lactacystin], the “effect of co-incubated inhibitor on ouabain-induced reduction in ATP1A1 levels” value (ATP1A1) was “caused an increase in ATP1A1 steady-state levels” and the “effect of co-incubated inhibitor on ouabain-induced reduction in PrP^C levels” value (PrP^C [1]) was “failed to block”.
